This is an account of results in patent US10827753B2, “Compositions and methods for controlling nematodes” (Monsanto Technology LLC, priority 2007, dated 2020).

Where two headings read alike, the source gives them in different places. Marks after values point to notes of the source that are not given here.

The subject of one assay is Meloidogyne incognita. As to the kind of experiment: M. incognita miniaturized greenhouse assay on cucumber seedlings (root galling). Format: in vivo. Also noted: key to 1 ppm gall ratings / 1 ppm gall rating: mean of 3 gall ratings: 0=0-5%, 1=6-20%, 2=21-50%, 3=51-100% root galled. Conditions: for 8 ppm gall ratings: average of triplicate gall rating, scale 0-3 (% root mass galled). As for the experimental part: The test compound is dissolved in an acetone solution and added to water. A sprouted cucumber seedling is placed into a vial with dry sand and the water-chemical solution is added immediately. Twenty four hours later Meloidogyne incognita eggs are added to the vials and 10 to 12 days later the roots are evaluated for nematode galling.
Cucumber seeds are sprouted for 3 days in moist paper towels. Acceptable sprouts should be 3 to 4 cm long with several lateral roots just emerging. Stock solutions of chemistry are prepared in a mixture of acetone and Triton X100 (412 mg in 500 mL) to a final concentration of 5 mg/mL. The chemical stock solution is then added to 10 mL deionized water plus 0.015% Triton X100 and mixed thoroughly. This is enough to test each condition in triplicate. Ten mL dry sand is added to each vial. At this time the solubility of the chemistry is visually determined and recorded as either ppt (large precipitates) or cloudy (fine precipitates). Seedlings are planted by tilting the vial and laying the seedling in the correct orientation so that the cotyledons are just above the sand and then tilting back to cover the radicles with sand. 3.3 ml water/chemical mix is added to each vial and the vials placed in racks under fluorescent light banks. The vials are inoculated two days after planting by adding 500 vermiform M. incognita eggs to each vial in 50 uL of deionized or spring water. The vials are then kept under the fluorescent lamps at ambient room temperature and watered as needed with 1 mL deionized water, usually twice during duration of test. Harvest of the cucumber plants is done 10 to 12 days after inoculation by washing sand off the roots. A root gall rating and visual phytotoxicity rating is assigned using the following scales: Gall rating scale (Gall: % root mass galled): 0=0-5%; 1=6-20%; 2=21-50%; and 3=51-100%. The average of the triplicate gall rating is then calculated: green=0.00-0.33 (no galls); yellow=0.67-1.33 (mild galling); orange=1.67-2.33 (moderate galling); red=2.67-3.00 (severe galling). Visual phytotoxicity scale is also assigned (Vis. tox; visual reduction in root mass compared to the control): rs1=mild stunting; rs2=moderate stunting; rs3=severe stunting.

A further assay relates to root knot nematode. The assay is described as follows: Pre-plant incorporated (PPI) greenhouse test of root knot nematode on cucumber plants. Format: in vivo, Meloidogyne incognita. Conditions: Meloidogyne incognita, read-out: percent control (galling reduction) relative to the control blank treatment; for pest or weed control at 2000 g/ha: 2 kg/ha rate; for pest or weed control at 4000 g/ha: 4 kg/ha rate; for pest or weed control at 8000 g/ha: 8 ka/ha rate. From the text:
The PPI test examines the effect of pre-incorporation of compounds in soil and longer aging to simulate in furrow methods of nematicide application in the field. The PPI test exposes compounds to a higher volume of soil and drying which can result in more severe soil binding. Compounds are also aged for longer periods which can lead to more extensive biotic and abiotic degradation further limiting activity.
The chemically treated soil (sandy soil mix) for all treatment days (e.g., 7 days, 14 days, 21 days) treatments is potted into their appropriate pots. On the same day the 7 day treatment pots are seeded. One week later eggs are applied and 14 days after egg application the test is harvested. The 14 day treatments are planted 7 days after the first planting. The 14 day planting and 7 day inoculation happen on the same day. One week later the 14 day treatments are inoculated with eggs. These are harvested 14 days after the inoculation. The 21 day treatments are planted 14 days after the first planting. The 14 day inoculation and 21 day planting are done on the same day. One week later the 21 day plants are inoculated with eggs. The 7 day treatment is harvested the same day as the 21 day inoculation. Fourteen days after inoculation the 21 day plants are harvested.
For each compound a stock is prepared using 4 mg material in 4 ml of acetone. The soil is mixed by placing 80 ml of field soil and 320 ml of sand in a plastic bag and mixing well. The formulation for treatment is done by adding 2.13 ml (8 kg/ha rate), 1.06 ml (4 kg/ha rate) or 0.53 ml (2 kg/ha rate) to a vial and raising it with 10 ml in 0.05%×100. Soil is then treated by adding the entire 10 ml to the 400 ml of mix in the bag. The treated soil is immediately mixed well in the sealed bag to distribute the compound evenly. Approximately 95 ml is used to fill each 2-inch square pot up to the top with some soil compression and flattening. For each compound and for the control treatments 4 pots are filled. All pots are watered until moist but with no run-out through the bottom.
The PPI test simulates 8, 4 and 2 kg/ha rates incorporated 15 cm deep in the field and is equivalent to the 2, 1 and 0.5 kg/ha drench application rates in the standard 2-inch pot cucumber greenhouse assay.

A further assay deals with root knot nematode (RKN). As to the kind of experiment: RKN greenhouse soil assay on cucumber plants. Format: in vivo, Meloidogyne incognita. The source says:
Cucumber seeds are planted in a sandy soil mixture in two inch square plastic pots. When the cotyledons are fully opened and just as the first leaf begins to emerge, usually 7 days after planting, chemistry for the 7 day treatment is applied. One week later the chemistry for the 0 day treatment is applied. Separate plants are used for each application. The plants are generally in the 1-2 leaf stage now. At least four hours after the chemistry application the pots are inoculated with root knot nematode (RKN) eggs. Plants are rated for galling 14 days after the egg inoculation.
One milligram of chemistry per four pots is equal to one kilogram per hectare of chemical. A standard test uses four replications. For rates above 2 kg/ha, the desired amount of chemical is weighed into a 30 ml vial (example: 8 kg/ha rate=8 mg chemical in 30 ml vial). The chemical is dissolved in 2 ml of appropriate solvent, generally acetone. For rates below 2 kg/ha, 2 milligrams of chemistry is weighed into the vial and dissolved in 2 ml of the solvent. The appropriate amount of chemical concentrate is then pipetted into a separate 30 ml vial and solvent is added to bring the volume to 2 ml (example 0.5 kg/ha=0.5 ml of concentrate+1.5 ml solvent). Each dissolved concentrate is then brought to a total of 20 milliliters using 0.05% Triton X 100 surfactant solution.
Pots to be treated are moist but not saturated. To each of four pots, five milliliters of the appropriate chemical solution is pipetted to the media surface making sure to avoid contact with the base of the plant. Immediately following chemical application, using a mist nozzle, the pot surface is wetted sufficiently to saturate the pot watering in the chemistry. The chemical application is done in the morning.
Nematode eggs, either SCN or RKN, are added to distilled water to create a concentration of 1000 vermiform eggs […]. At least four hours after chemical treatment the eggs are applied to the treated pots plus non-treated check plants. A small hole about 1 cm deep is punched into the pot surface. One milliliter of the nematode egg slurry is pipetted into the hole. Immediately afterwards the hole is gently covered. Watering of the test plants is then restricted to only water as needed to prevent wilt for a period of 24 hours. After the 24 hour restricted watering, normal sub-irrigation watering is done for the duration of the test.

Setting [1] is: fourteen day pre-plant incorporated, test a.
Where [2] appears, read: Acetone 1 mg/kg, standard 10% acetone in 0.05% Triton X 100 formulation.
Setting [3] is: Radex 1 mg/kg, emulsifiable concentrate, 6.25% active ingredient by weight.
Setting [4] is: 168 h, seven day pre-plant incorporated.
The mark [5] stands for this setting: 0 day treatment, 0.25 kg/ha, test a.

Consider `Clc1ccc(-c2noc(-c3cccs3)n2)cc1` [compound 5527], for which, in the assay with Meloidogyne incognita (Table 1B test a), the “1 ppm gall ratings” value is 1.67. Also, in the assay with Meloidogyne incognita (Table 1B test b), the “1 ppm gall ratings” value is 1 (1=6-20%). Also, the “8 ppm gall ratings” value with Meloidogyne incognita stood at 0.67. Also, in the assay with root knot nematode (setting [1]), the pest or weed control at 2000 g/ha amounted to 57%, the pest or weed control at 4000 g/ha turned out to be 90% and the pest or weed control at 8000 g/ha worked out at 96%. Besides, in the assay with root knot nematode (RKN) (setting [2]), the “percent control (galling reduction) relative to the appropriate control blank treatment” value came out at 91%. In addition, the “percent control (galling reduction) relative to the appropriate control blank treatment” value in the assay with root knot nematode (RKN) (setting [3]) was determined as 80%.
Regarding `FC(F)(F)c1ccc(-c2noc(-c3cccs3)n2)cc1` [compound 5213], the “8 ppm gall ratings” value in the assay on Meloidogyne incognita was 0.33. Also, in the assay on root knot nematode (setting [4]), the pest or weed control at 4000 g/ha was 85% and the pest or weed control at 8000 g/ha was 98%.
As to `Fc1ccc(-c2noc(-c3cccs3)n2)cc1` [compound 5479], the “1 ppm gall ratings” value with Meloidogyne incognita (Table 1B test a) was 1 (1=6-20%). The “1 ppm gall ratings” value in the assay with Meloidogyne incognita (Table 1B test b) was determined as 0.67. In the assay with Meloidogyne incognita, the “8 ppm gall ratings” value is 0 (0=0-5%). Besides, in the assay with root knot nematode (setting [1]), the pest or weed control at 2000 g/ha came out at 71%, the pest or weed control at 4000 g/ha was 89% and the pest or weed control at 8000 g/ha came to 100%. Besides, the “percent control (galling reduction) relative to the appropriate control blank treatment” value in the assay on root knot nematode (RKN) (setting [2]) came out at 91%. Also, the “percent control (galling reduction) relative to the appropriate control blank treatment” value in the assay on root knot nematode (RKN) (setting [3]) is reported as 96%.
Regarding `Cc1cc(Br)ccc1-c1noc(-c2ccco2)n1` [compound 5825], the “1 ppm gall ratings” value in the assay with Meloidogyne incognita (Table 1B test a) is on record as 0 (0=0-5%); with Meloidogyne incognita (Table 1B test b) it was 0.33. Besides, the pest or weed control at 2000 g/ha in the assay with root knot nematode (setting [1]) stood at 69%. The pest or weed control at 4000 g/ha in the assay with root knot nematode (setting [1]) is 98%. In addition, in the assay on root knot nematode (setting [1]), the pest or weed control at 8000 g/ha was 96%. Also, the “percent control (galling reduction) relative to the control blank treatment” value was 53^a percent with root knot nematode (RKN) (0 day treatment, 0.05 kg/ha, test a); 50^a percent with root knot nematode (RKN) (0 day treatment, 0.1 kg/ha, test a); 89% with root knot nematode (RKN) (setting [5]); 84% in the assay with root knot nematode (RKN) (0 day treatment, 0.25 kg/ha, test b); “— 94^b percent” in the assay with root knot nematode (RKN) (0 day treatment, 1 kg/ha, test b); “— 97^b percent” in the assay with root knot nematode (RKN) (7 day treatment, 1 kg/ha, test b). Moreover, the “percent control (galling reduction) relative to the appropriate control blank treatment” value in the assay with root knot nematode (RKN) (setting [2]) and in the assay with root knot nematode (RKN) (setting [3]) was 96% each time.
As to `Brc1ccc(-c2noc(-c3cccs3)n2)cc1` [compound 1846], the “1 ppm gall ratings” value was found to be 1.33 in the assay on Meloidogyne incognita (Table 1B test a) and 0.67 in the assay with Meloidogyne incognita (Table 1B test b). The “8 ppm gall ratings” value with Meloidogyne incognita was 0 (0=0-5%). For the same compound, the “percent control (galling reduction) relative to the appropriate control blank treatment” value with root knot nematode (RKN) (setting [2]) is recorded as 88%; in the assay on root knot nematode (RKN) (setting [3]) it was 86%.
Regarding `Brc1ccc(-c2noc(-c3ccco3)n2)cc1` [compound 5467], the “1 ppm gall ratings” value with Meloidogyne incognita (Table 1B test a) is on record as 1.67. The “1 ppm gall ratings” value with Meloidogyne incognita (Table 1B test b) was 1.33. In addition, the “8 ppm gall ratings” value in the assay with Meloidogyne incognita is 0 (0=0-5%). In the assay on root knot nematode (setting [1]), the pest or weed control at 2000 g/ha turned out to be 71%, the pest or weed control at 4000 g/ha was found to be 76% and the pest or weed control at 8000 g/ha worked out at 100%. For the same compound, the “percent control (galling reduction) relative to the appropriate control blank treatment” value in the assay with root knot nematode (RKN) (setting [2]) worked out at 73%. In addition, in the assay with root knot nematode (RKN) (setting [3]), the “percent control (galling reduction) relative to the appropriate control blank treatment” value is 88%.
With `Clc1cc(Br)ccc1-c1nsc(-c2ccco2)n1` [compound 5961], the “percent control (galling reduction) relative to the control blank treatment” value is reported as “— — 73^c percent” in the assay on root knot nematode (RKN) (0 day treatment, 0.05 kg/ha, test c); “— — 88^c percent” in the assay with root knot nematode (RKN) (0 day treatment, 0.1 kg/ha, test c); “— — 81^c percent” with root knot nematode (RKN) (0 day treatment, 0.25 kg/ha, test c).
Take `Fc1cc(Cl)ccc1-c1noc(-c2cccs2)n1` [compound 5860]: the “percent control (galling reduction) relative to the control blank treatment” value with root knot nematode (RKN) (setting [5]) is 47^a percent; with root knot nematode (RKN) (0 day treatment, 1 kg/ha, test a), 85^a percent; in the assay on root knot nematode (RKN) (7 day treatment, 1 kg/ha, test a), 86^a percent.
